The values that follow come from patent publication US20150231276A1, “ROLE OF DH44 AND HOMOLOGS IN CALORIE SENSING” (New York University, priority 2014, published 2015).

Test [1] relates to CRH neurons in paraventricular nucleus (PVN). Nature of the test: Whole-cell patch-clamp recordings of glucose sensing response in brain slices. Also on record: Input R: unit not given here. It counts as cell-based, mice. The protocol:
Whole-cell patch-clamp recordings from CRH neurons in paraventricular nucleus (PVN) slice preparation and data analysis were performed as previously described (ref).
Briefly, 3 to 5 week old of either male or female mice were anesthetized with isoflurane and transcardially perfused with a modified ice-cold artificial CSF (ACSF) in which NaCl was substituted with an equal molar concentration of sucrose (described below). Then, the mice was decapitated, and the entire brain was removed and then immediately immersed in ice-cold ACSF (220 mM sucrose, 2.5 mM KCl, 5.0 mM MgCl2, 1.0 mM CaCl2, 1.0 mM NaH2PO4, 26 mM NaHCO3, and 10 mM glucose), saturated with 95% O2 and 5% CO2. A brain block containing PVN was mounted on a stage and coronal sections (250 um) were cut with a Leica Vibratome. The sectioned slices were then incubated in oxygenated ACSF at 34° C. for at least 1 hour before recording. The slices were transferred into recording chamber and bathed in oxygenated ACSF. The solution flowing the recording chamber was consists of: (126 mM NaCl, 26 mM NaHCO3, 2.8 mM KCl, 2.5 mM CaCl2, 1.25 mM NaH2PO4, 1.2 mM MgSO4, and 5 mM or 2.5 mM glucose). The pipette solution for whole-cell recording was modified to include an intracellular dye (Alexa Fluor 488): 120 mM K-gluconate, 10 mM KCl, 10 mM HEPES, 5 mM EGTA, 1 mM CaCl2, 1 mM MgCl2, and 2 mM MgATP, 0.03 mM Alexa Fluor 488 dye, pH 7.3. Electrophysiological signals were recorded using an […] amplifier (Molecular Devices), low-pass filtered at 2-5 kHz, and analyzed offline on a PC with pCLAMP programs (Molecular Devices). Recording electrodes had resistances of 4.0-6.0 MΩ when filled with K-gluconate pipette solution.
As the cells to be targeted illuminate red fluorescence from td-tomato, the pipette with positive pressure was attached to cell membrane, which was subsequently giga-sealed by brief negative pressure, before making a tiny hole with more negative pressure to perform whole-cell recordings. Only cells with a whole-cell resistance below 15 MΩ and with a stable resting membrane potential within 1 min were selected and carried out recording. […] At the end of a stable trace, its input resistance was assessed by measuring the voltage deflection to hyperpolarizing rectangular current pulse steps (500 ms of −10 to −50 pA). […] Depending on the cells, it took 1-5 min to change the membrane potential and firing rate. After stabilizing the change in electrophysiological response, input resistance was assessed in the same way as previously described. […] (For most CRH neurons as GE neurons, it took more than 10 min to recover after the response.)
A general note: Patch clamp records ionic current or voltage across a cell membrane.

In test [2] the test system is Dh44+ cells. Description: Ca2+ imaging (GCaMP3.0) of Dh44+ cell activity in response to sugars, ex vivo fly brains. Type of test: cell-based, Drosophila melanogaster. The following applies: for activation of Dh44+ cells: perfusion of sugar, brains of PDh44 GAL4>UAS-GCaMP3.0 flies, D-glucose 5, 20, 80 mM; for peak amplitude, oscillation number and frequency of Dh44+ cells activation: non-metabolized sugar treatment.

Test [3] has as its system Dh44+ cells. Description: Ex vivo destaining experiment: Dh44 peptide release quantified by αDh44 immunofluorescence. It counts as cell-based, Drosophila melanogaster. As to conditions: for release of the Dh44 peptide (amount of Dh44 peptide left inside Dh44+ cells): brains of 18 h-food deprived flies incubated in AHL + sugar 80 mM for 30′, compared with saline (AHL).
[4] abbreviates: Table 2, glucose back to 2.5 mM.

“Also recorded” adds a separate entry of the source. Like-named read-outs stand apart in the source and are kept apart here.

Take `O=C[C@H](O)[C@@H](O)[C@H](O)[C@H](O)CO` [D-glucose]: the f in test [1] (Table 1 (FIGS. 10A-10B), glucose 5 mM, first) is recorded as 0.64 HZ; in test [1] (Table 1, glucose 2.5 mM), 0.02 HZ; in test [1] (Table 1, glucose back to 5 mM) it was 0.65 HZ; in test [1] (Table 2 (FIGS. 11A-11B), glucose 2.5 mM, first), 0.64 HZ; in test [1] (Table 2, glucose 5 mM), 0.02 HZ; in test [1] (setting [4]), 0.65 HZ. Further, the “Input R” value was 1.25 in test [1] (Table 1, glucose 2.5 mM); 1.40 in test [1] (Table 1, glucose 5 mM); 2.66 in test [1] (Table 2, column headed glucose 2.5 mM); 2.82 in test [1] (Table 2, column headed glucose 5 mM). Also, the RMP in test [1] (Table 1, glucose 2.5 mM) was −65.8874 mV; in test [1] (Table 1, glucose 5 mM, first), −49.5691 mV; in test [1] (Table 1, glucose back to 5 mM) it was −57.9124 mV; in test [1] (Table 2, glucose 2.5 mM, first) it was −60.5911 mV; in test [1] (Table 2, glucose 5 mM), −52.4561 mV; in test [1] (setting [4]) it was −59.3806 mV. For the same compound, the “Rev P” value is on record as −222.95 mV in test [1] (Table 1, glucose 5 mM to 2.5 mM) and −169 mV in test [1] (Table 2). Moreover, in test [1] (after recording solution changed from 5 mM to 2.5 mM glucose), the “time to change the membrane potential and firing rate” value is 1 to 5 min. Moreover, the “electrical activity of the CRH neurons” value is listed as “increased” in test [1] (glucose changed from 2.5 mM to 5 mM) and “decreased” in test [1] (glucose changed from 5 mM to 2.5 mM). For the same compound, in test [1] (recording solution changed back to 5 mM glucose, most CRH neurons), the “time to recover after the response” value is “more than 10 min”. Further, in the test on Dh44+ cells [2], the “activation of Dh44+ cells” value was “robust and persistent activation; also recorded: robustly activated”.

For the compound `NC1=N[C@H](O)[C@H]2[C@H]3O[C@]4(O)O[C@@H]([C@@H](O)[C@@]2(N1)[C@@H]4O)[C@]3(O)CO` [TTX, Tetrodotoxin], the “effect on D-glucose-mediated activity (Ca++ influx) of Dh44+ cells” value in the test with Dh44+ cells [2] is “small but non-significant effect; also recorded: small but nonsignificant effect”. Further, the “effect on D-glucose-induced Dh44 neuropeptide release” value in the test with Dh44+ cells [3] is “did not affect”.

Regarding `O=C(CO)[C@@H](O)[C@H](O)[C@H](O)CO` [D-fructose], the “activation of Dh44+ cells” value in the test with Dh44+ cells [2] was “robustly activated”; in the test on Dh44+ cells [2] (listed as fructose) it was “robust and persistent activation”.

On to `O=CC[C@@H](O)[C@H](O)[C@H](O)CO` [2DG, 2-deoxy-D-glucose], for which, in the test on Dh44+ cells [2], the “peak amplitude, oscillation number and frequency of Dh44+ cells activation” value is given as “greatly reduced or nearly abolished”; the “activation of Dh44+ cells” value was “small increase in activity that lacked oscillations”. Also, the “release of the Dh44 peptide (amount of Dh44 peptide left inside Dh44+ cells)” value (“release of the Dh44 peptide” for short) in the test with Dh44+ cells [3] is on record as “did not result in the release”. In the test with Dh44+ cells [3] (listed as D-2′-deoxy-glucose), the “release of the Dh44 peptide” value is “did not induce”.

Take `OC[C@H]1O[C@H](O[C@H]2O[C@H](CO)[C@@H](O)[C@H](O)[C@H]2O)[C@H](O)[C@@H](O)[C@@H]1O` [trehalose]: the “activation of Dh44+ cells” value with Dh44+ cells [2] is “robust and persistent activation; also recorded: robustly activated”.

Regarding `O=C[C@@H](O)[C@H](O)[C@@H](O)[C@@H](O)CO` [L-glucose], in the test on Dh44+ cells [2], the “peak amplitude, oscillation number and frequency of Dh44+ cells activation” value is listed as “greatly reduced or nearly abolished”; the “activation of Dh44+ cells” value is “small increase in activity that lacked oscillations”. For the same compound, in the test with Dh44+ cells [3], the “release of the Dh44 peptide” value is “did not result in the release; also recorded: did not induce”.

For the compound `O=C1NC(=O)C(=O)C(=O)N1` [Alloxan], in the test with Dh44+ cells [2] (D-glucose + Alloxan perfusion), the “oscillations of Dh44+ cells” value is listed as “almost complete disappearance” and the “peak amplitude of activation of Dh44+ cells” value was “dramatic decrease”. Besides, the “effect on D-glucose-mediated activity (Ca++ influx) of Dh44+ cells” value with Dh44+ cells [2] (agent added to the D-glucose solution, Alloxan 4 μM) is listed as “greatly suppressed”. The “effect on D-glucose-induced Dh44 neuropeptide release” value in the test with Dh44+ cells [3] (agent together with D-glucose, ex vivo) is on record as “did not result in the release; also recorded: reduction”.
